Assay results as given in patent US12419869B2, “Methods of treating multiple sclerosis” (Vanda Pharmaceuticals Inc., priority 2021, dated 2025).

Tests used:
[1] = Coadministration with oral hormonal contraceptive; format: in vivo, human; details: 1 mg norethisterone/norethindrone and 35 μg ethinyl estradiol
Source text: Therefore, concomitant use of ponesimod is not expected to decrease the efficacy of hormonal contraceptives. No interaction studies have been performed with oral contraceptives containing other progestogens: however, an effect of ponesimod on their exposure is not expected.

[2] = Pharmacokinetics in renal impairment; format: in vivo, human; details: moderate or severe renal impairment
Source text: No dose adjustment is necessary in patients with renal impairment. […] The effect of dialysis on the PK of ponesimod has not been studied. Due to the high plasma protein binding (greater than 99%) of ponesimod, dialysis is not expected to alter the total and unbound ponesimod concentration, and no dose adjustments are anticipated based on these considerations.

[3] = tested on: peripheral lymphocyte count; format: in vivo, human
Source text: PONVORY causes a dose-dependent reduction in peripheral lymphocyte count to 30-40% of baseline values because of reversible sequestration of lymphocytes in lymphoid tissues [see Clinical Pharmacology (12.2)]. PONVORY may therefore increase the susceptibility to infections. Life-threatening and rare fatal infections have been reported in association with other sphingosine 1-phosphate (SIP) receptor modulators.
Initiation of treatment with PONVORY should be delayed in patients with active infection until resolution. Lymphocyte counts returned to the normal range in 90% of patients within 1 week of stopping therapy in modeling studies [see Clinical Pharmacology (12.2)]. In Study 1, peripheral lymphocyte counts returned to normal range within 2 weeks after discontinuation of PONVORY, which was the first timepoint evaluated. Because residual pharmacodynamic effects, such as lowering effects on peripheral lymphocyte count, may persist for 1 to 2 weeks after discontinuation of PONVORY, vigilance for infection should be continued for 1 to 2 weeks after PONVORY is discontinued [see Warnings and Precautions (5.12)].
In Study 1, the proportion of patients who experienced lymphocyte counts less than 0.2×10^9/L was 3.2%. Effective diagnostic and therapeutic strategies should be employed in patients with symptoms of infection while on therapy. Consider interruption of treatment with PONVORY if a patient develops a serious infection.

[4] = tested on: pregnant rabbits; assay: Embryofetal development study in pregnant rabbits, oral; format: in vivo
Source text: No maternal toxicity was observed.

[5] = tested on: mice; assay: Carcinogenesis, mice, oral up to 2 years; format: in vivo, mouse
Procedure: Plasma exposure (AUC) at to lowest dose tested in males (50 mg/kg/day) was approximately 5 times that in humans at the recommended human dose (RHD) of 20 mg.

[6] = tested on: mice, rats, and dogs; details: in vivo
Source text: At the higher doses tested in short-term studies, alveolar histiocytosis was associated with lung edema, emphysema, or hyalinosis, and with bronchioloalveolar hyperplasia after cessation of dosing in rats and alveolar histiocytosis and hyalinosis in dogs. Effects tended to be absent or less severe after chronic treatment. These findings are considered secondary to increased vascular permeability caused by S1P1 receptor modulation.

[7] = tested on: CYP450, UGT and non-CYP450 oxidative enzymes; assay: In vitro studies with human liver preparations (metabolism); format: in vitro ADME
Source text: Experiments with human liver preparations indicate that metabolism of ponesimod to M13 occurs primarily through a combination of non-Cytochrome P450 (CYP450) enzymatic activities. Multiple CYP450 (CYP2J2, CYP3A4, CYP3A5, CYP4F3A, and CYP4F12) and non-CYP450 enzymes catalyze the oxidation of ponesimod to M12. Ponesimod also undergoes direct glucuronidation (mainly UGT1A1 and UGT2B7).

[8] = tested on: peripheral blood lymphocyte count; assay: Peripheral blood lymphocyte count in healthy volunteers; format: in vivo, human
Procedure: In healthy volunteers, PONVORY induces a dose-dependent reduction of the peripheral blood lymphocyte count from a single dose of 5 mg onwards, with the greatest reduction observed 6 hours post-dose, caused by reversible sequestration of lymphocytes in lymphoid tissues. After 7 daily doses of 20 mg, the greatest decrease in absolute mean lymphocyte count was to 26% of baseline (650 cells/μL), observed 6 hours after administration. Peripheral blood B cells [CD19+] and T cells [CD3+], T-helper [CD3+CD4+], and T-cytotoxic [CD3+CD8+] cell subsets are all affected, while NK cells are not. T-helper cells were more sensitive to the effects of ponesimod than T-cytotoxic cells.

What does the source list for CCC/N=C1\S/C(=C\c2ccc(OC[C@H](O)CO)c(Cl)c2)C(=O)N1c1ccccc1C [Ponesimod, (R)-5-[3-chloro-4-(2,3-dihydroxy-propoxy)-benz[Z]ylidene]-2-([Z]-propylimino)-3-o-tolyl-thiazolidin-4-one]?
Pharmacokinetic interaction with oral hormonal contraceptive [1]: no clinically relevant pharmacokinetic interaction; Change in Cmax and AUC vs normal renal function [2]: no significant changes; Time for peripheral lymphocyte counts to return to normal range after discontinuation ([3]; Study 1, first timepoint evaluated): ≤ 2 weeks; Peripheral lymphocyte count reduced to % of baseline values ([3]; dose-dependent): 30-40 % of baseline; Proportion of patients with lymphocyte counts less than 0.2×10^9/L ([3]; human, in vivo): 3.2%; Embryofetal findings in rabbits ([4]; 0, 0.25, 1, or 4 mg/kg/day oral, at highest dose): an increase in post-implantation loss and fetal variations; No-effect dose for adverse effects on embryofetal development in rabbits ([4]; rabbit, in vivo): 1 mg/kg/day; Plasma exposure at no-effect dose vs humans at RHD ([4]; rabbits): lower than that in humans; Carcinogenicity findings in mice ([5]; males all doses (50, 150, 400 mg/kg/day), females highest dose (300 mg/kg/day)): incidences in hemangiosarcoma and combined hemangioma and hemangiosarcoma; Plasma exposure (AUC) at lowest dose in male mice (50 mg/kg/day) relative to humans at RHD ([5]; mouse, in vivo): approximately 5 times; Lung findings in oral toxicity studies [6]: Increases in lung weight and histopathology; Contribution of enzymes to metabolism [7]: without major contribution by any single enzyme; Absolute mean lymphocyte count at greatest decrease ([8]; after 7 daily doses of 20 mg): 650 cells/μL; Greatest decrease in absolute mean lymphocyte count, % of baseline ([8]; after 7 daily doses of 20 mg, 6 hours after administration): 26 % of baseline; Time of greatest reduction of peripheral blood lymphocyte count ([8]; post-dose, healthy volunteers): 6 h
